From patent US20230064292A1, “METHODS OF TREATING PSMA-POSITIVE CANCER USING RADIONUCLIDE THERAPY” (priority 2020, published 2023)
Values joined by “and” are separate entries in the source; they are usually repeats but may differ in a detail not shown here. Equal values may be shown once. “Also recorded” adds a separate entry of the source. Marks after values point to notes of the source that are not given here.

Columns and labels:
[1] = Physical examination and monitoring for adverse events in the clinical trial; format: in vivo, human; settings: to date
PSMA+ tumors = test: Tumor dosimetry and uptake by SPECT imaging in patients; format: in vivo, human
From the text: In addition to assessing radiation exposure to dose limiting organs, it is also feasible to use SPECT/CT or SPECT/MRI imaging and dosimetry to estimate CTT1403 dose to the tumor, which could indicate efficacy.
CTT1057 PSMA+ PET is used to screen patients for PSMA avid tumors prior to enrollment into the clinical trial. SPECT/CT images are collected serially on days 1, 3, 5 and 8 following CTT1403 dose administration to assess dosimetry, or exposure of normal organs and the tumor to the radionuclide, 177-lutetium. […] FIGS. 2-7 show the PET images collected prior to and after CTT1403 and serial SPECT/CT images collected from patients enrolled in the clinical trial. Further, Table 4 compares the doses in kidney and tumor reported by Violet et al (Violet, J., et al., “Dosimetry of (177)Lu-PSMA-617 in Metastatic Castration-Resistant Prostate Cancer: Correlations Between Pretherapeutic Imaging and Whole-Body Tumor Dosimetry with Treatment Outcomes” J Nucl Med, 2019. 60(4): p. 517-523) compared to findings to date in patients administered CTT1403.

[2] = Pharmacokinetics of CTT1403 in mCRPC subjects (radioactivity of blood samples); format: in vivo, human
Experimental: In order to investigate the pharmacokinetics of CTT1403, doses were administered by IV to fifteen subjects. The subjects each had histologically confirmed prostate adenocarcinoma that was metastatic and castration resistant (mCRPA). Subjects with de novo small cell carcinoma of the prostate were excluded. The subjects further had at least three metastatic foci avid for PSMA-specific PET agent CTT1057 or 68Ga-PSMA-11 uptake. PSMA avidity was defined as SUVmax>mediastinal blood pool. The subjects had received docetaxel, were ineligible for docetaxel, or had refused docetaxel. They all further had progression by the PCWG3 criteria during or after treatment with abiraterone, enzalutamide, and/or apalutamide, and had serum testosterone<50 ng/dL. Subjects without a history of bilateral orchiectomy were required to remain on a luteinizing hormone-releasing hormone (LHRH) analog during the course of the protocol therapy.
Pharmacokinetics assessment follows the movement of drugs throughout the body, including measurement of the drug's half-life in circulation. The longer a drug remains available in circulation before being cleared from the body, the greater the opportunity for it to meet its target and achieve the desired therapeutic effect. To measure pharmacokinetics, remaining CTT1403 was estimated by measuring the radioactivity of blood sample withdrawn at particular time points. Each patient received a dose ranging from 0.75 GBq to 7.5 GBq.
This is already more than a 5.3-fold greater distribution phase and 3.5-fold greater elimination phase than the PSMA-617 agent (without the albumin binder) and will further increase as the dose increases. […] CTT anticipates that these early observations will translate to compelling efficacy as the trial progresses. Table 1 reports the blood distribution and elimination half-lives for 13 of 15 patients enrolled in the study. […] Longer clearance half-lives will advantageously yield enhanced drug delivery as CTT1403 has more time to find and bind to expressed PSMA. This effect also allows more time for the therapeutic agent to reach smaller tumors or poorly-vascularized tumors. Longer systemic circulation of CTT1403 afforded by the albumin motif believed to lead to lower dosing of the kidneys, a dose-limiting factor, allowing higher dosages to be safely administered.

[3] = Preclinical rat studies of CTT1403 kidney exposure; format: in vivo
From the text: CTT1403 localization in various organs is accomplished by estimating dosimetry using SPECT/CT or SPECT/MRI imaging of the radioisotope component (using the gamma particle emission) of CTT1403, ^177Lu, up to 8 days after the first dose. […] Preclinical studies in rats with CTT1403 identified the kidneys as the dose limiting organ. Table 2, below, summarizes kidney dosimetry calculated from the first 15 patients enrolled in the study after receipt of escalating doses of CTT1403 and contrasts it with the predicted kidney exposure from rat studies. […] Preclinical studies in rats estimated expected kidney exposure of ˜5.2 Gy/GBq. […] CTT1403 may be sequestered in tumors and under exposing the kidney.

[4] = CTT1403 (7.5 GBq +/− 10%), preliminary, 2 tumors per patient in patients 14 and 15
[5] = patient 1, dose 0.73 GBq (19.6 mCi)
[6] = patient 4, dose 3.0 GBq (81.1 mCi)
[7] = patient 6, dose 2.98 GBq (80.5 mCi)
[8] = patient 14, dose 7.98 GBq (215.7 mCi)
[9] = patient 15, dose 7.77 GBq (210 mCi)
[10] = 1.5 GBq IV (1st patient at this dose)
[11] = 2.0 GBq IV (1st patient at this dose)
[12] = 3.0 GBq IV (1st patient at this dose)
[13] = 3.0 GBq IV (2nd patient at this dose)
[14] = 3.0 GBq IV (3rd patient at this dose)
[15] = 4.5 GBq IV (1st patient at this dose)
[16] = 4.5 GBq IV (2nd patient at this dose)
[17] = 4.5 GBq IV (3rd patient at this dose)
[18] = 6.0 GBq IV (1st patient at this dose)
[19] = 6.0 GBq IV (2nd patient at this dose)
[20] = 6.0 GBq IV (3rd patient at this dose)
[21] = 7.5 GBq IV (1st patient at this dose)
[22] = 7.5 GBq IV (2nd patient at this dose)
[23] = half-life of CTT1403 vs reported 177Lu-PSMA-617
[24] = mean of 13 patients, 1.5-7.5 GBq IV, preliminary

## O=C(O)CC[C@H](NP(=O)(O)OCCC[C@H](NC(=O)CC[C@H](NC(=O)CCCCCNC(=O)CCC(NC(=O)CCOCCOCCOCCOCCNC(=O)CCC(=O)N1Cc2ccccc2-c2c(nnn2CCCNC(=O)CN2CCN3CCN4CCN(CC2)CC(=O)[O][177Lu]([O]C(=O)C3)[O]C(=O)C4)-c2ccccc21)C(=O)NC(CCCCNC(=O)CCCc1ccc(I)cc1)C(=O)O)C(=O)O)C(=O)O)C(=O)O (stereo partly drawn) [CTT1403]
[1]
  serious adverse events after receipt of CTT1403: no serious adverse events
PSMA+ tumors; 4.5 GBq, through 7 days post-administration (FIG. 9, patient 12)
  CTT1403 within tumor by SPECT: uptake of CTT1403 in tumors; also recorded: still clearly present
PSMA+ tumors; 24 hours after administration of 7.5 GBq (FIG. 10, patient 17)
  uptake of CTT1403 in tumors by SPECT: distinct uptake
PSMA+ tumors; [4]
  Tumor Dose to date, Dose Gy/GBq: 1.948* Gy/GBq
  Tumor Dose to date, Mean Dose (Gy): 14.61* Gy
PSMA+ tumors; administered by 3.0 GBq
  tumor dose: ~1 Gy
PSMA+ tumors; [5]
  Tumor 1 (Gy): 0.122 Gy
  Tumor 2 (Gy): 0.1164 Gy
PSMA+ tumors; patient 2, dose 1.5 GBq (40.5 mCi)
  Tumor 1 (Gy): 0.2461 Gy
PSMA+ tumors; patient 3, dose 2.03 GBq (54.8 mCi)
  Tumor 2 (Gy): 0.2553 Gy
PSMA+ tumors; [6]
  Tumor 1 (Gy): 1.282 Gy
  Tumor 2 (Gy): 0.3729 Gy
  Tumor 3 (Gy): 1.906 Gy
PSMA+ tumors; patient 5, dose 2.95 GBq (79.8 mCi)
  Tumor 1 (Gy): 1.639 Gy
PSMA+ tumors; [7]
  Tumor 1 (Gy): 1.104 Gy
  Tumor 2 (Gy): 0.329 Gy
PSMA+ tumors; [8]
  Tumor 1 (Gy): 13.6 Gy
  Tumor 2 (Gy): 12.7 Gy
PSMA+ tumors; [9]
  Tumor 1 (Gy): 22.4 Gy
  Tumor 2 (Gy): 9.74 Gy
PSMA+ tumors; patients at 7.5 GBq+/−10%, early reported
  tumor dose compared to 177Lu-PSMA-617: at least similar and possibly even greater
PSMA+ tumors; vs patients with less than a 50% reduction in circulating PSA
  tumor Gy/GBq compared to 177Lu-PSMA-617 in patients with PSA<50%: significantly outperform
[2]; [10]
  Distribution Half-life: 0.75 h
  Elimination Half-life 2: 28.88 h
[2]; [11]
  Distribution Half-life: 1.04 h
  Elimination Half-life 2: 23.90 h
[2]; [12]
  Distribution Half-life: 0.51 h
  Elimination Half-life 2: 27.73 h
[2]; [13]
  Distribution Half-life: 0.89 h
  Elimination Half-life 2: 31.51 h
[2]; [14]
  Distribution Half-life: 0.70 h
  Elimination Half-life 2: 36.48 h
[2]; [15]
  Distribution Half-life: 0.85 h
  Elimination Half-life 2: 33.01 h
[2]; [16]
  Distribution Half-life: 0.85 h
  Elimination Half-life 2: 34.66 h
[2]; [17]
  Distribution Half-life: 0.85 h
  Elimination Half-life 2: 43.32 h
[2]; [18]
  Distribution Half-life: 0.78 h
  Elimination Half-life 2: 46.21 h
[2]; [19]
  Distribution Half-life: 0.57 h
  Elimination Half-life 2: 30.14 h
[2]; [20]
  Distribution Half-life: 1.06 h
  Elimination Half-life 2: 33.01 h
[2]; [21]
  Distribution Half-life: 1.20 h
  Elimination Half-life 2: 57.76 h
[2]; [22]
  Distribution Half-life: 1.00 h
  Elimination Half-life 2: 57.76 h
[2]; after 2 weeks, subjects who received the 7.5 GBq dose
  CTT1403 detection in blood: still detected
[2]; [23]
  fold greater distribution phase than the PSMA-617 agent: > 5.3 fold
  fold greater elimination phase than the PSMA-617 agent: > 3.5 fold
[2]; [24]
  Distribution half-life (mean): 0.85 ± 0.2 h
  Elimination half-life (mean): 37.3 ± 10.9 h and 37.26 h
[2]; range over patients, 1.5-7.5 GBq IV
  Distribution phase half-life, range: 0.51 to 1.2 h
[2]; vs agent lacking the albumin binding moiety
  circulation time compared with 177Lu-PSMA-617: at least two to ten-fold greater
[3]; preclinical studies in rats
  dose limiting organ: kidneys
[3]; predicted human kidney exposure from rat studies
  expected kidney exposure estimated from preclinical studies in rats: ~5.2 Gy/GBq
